Active and inactive are the calls of the source.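 The calls were made as follows: active = fitted curve reaches 40% activation at a concentration no higher than the top valid tested dose; inconclusive = flat fit between 30% and 70% activation, or poor fit; inactive = uptake decrease, flat fit within 30% of zero, the rest.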
biological target: Scavenger receptor class B member 1 (Mus musculus) (UniProt Q61009); assay: enhancers of DiI-HDL lipid transfer via SR-BI – cell-based, ldlA[mSR-BI] CHO, DiI fluorescence, cherry-pick, dose response (AID 602191); conditions: ldlA[mSR-BI] CHO cells, 3 h, at 35 µM (top of the series);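 also: cell fluorescence from internalized DiI-labeled HDL after washing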;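 as to AC40: potency of activators raising HDL uptake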;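 as to activation (HDL uptake increase): 0% = median of DMSO wells and 100% = twice the DMSO signal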
Sequence (Q61009 whole entry, looked up): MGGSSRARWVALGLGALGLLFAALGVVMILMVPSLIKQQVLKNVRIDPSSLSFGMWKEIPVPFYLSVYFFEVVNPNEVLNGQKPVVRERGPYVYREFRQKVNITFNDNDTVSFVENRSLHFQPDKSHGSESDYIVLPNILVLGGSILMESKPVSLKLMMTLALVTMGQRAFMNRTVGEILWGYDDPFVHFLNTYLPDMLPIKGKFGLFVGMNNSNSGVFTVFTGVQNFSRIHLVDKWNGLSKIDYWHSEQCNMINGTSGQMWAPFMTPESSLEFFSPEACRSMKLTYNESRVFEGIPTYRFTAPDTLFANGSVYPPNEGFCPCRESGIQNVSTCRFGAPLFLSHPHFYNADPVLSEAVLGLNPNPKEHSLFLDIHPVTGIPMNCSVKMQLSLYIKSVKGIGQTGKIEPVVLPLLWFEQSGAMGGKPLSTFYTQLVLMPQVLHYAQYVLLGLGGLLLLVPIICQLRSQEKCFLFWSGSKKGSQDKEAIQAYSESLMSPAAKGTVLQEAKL

Compound	activation (HDL uptake increase)
Cn1c(SCC(=O)N2CCCCCC2)nc2c(c1=O)SCC2	-10.7% (inactive)
COc1ccc(CCNC(=S)N2CCN(S(=O)(=O)c3ccc(Cl)cc3)CC2)cc1	5.66% (inactive)
O=C(COC(=O)CNC(=O)c1ccc(Cl)cc1Cl)NCc1ccco1	-5.97% (inactive)
Cc1ccc(S(=O)(=O)N2CCC(=O)N(CCOCc3cccc(F)c3)CC2)cc1	5.46% (inactive)
COC(=O)Cc1csc(Nc2ccccc2)n1	0.176% (inactive)
O=C(c1ccco1)N1CCN(C(=S)Nc2ccc(F)c(Cl)c2)CC1	-12.3% (inactive)
O=C(COC(=O)c1ccc[nH]c1=O)Nc1cc(S(=O)(=O)N2CCCCCC2)ccc1Cl	-9.61% (inactive)
CC(C)C(C)(C#N)NC(=O)CSc1nnc(C(F)(F)F)n1C (stereo unspecified)	-5.69% (inactive)
Nc1nnc(SCC(=O)NN2C(=O)NC3(CCCCC3)C2=O)s1	-7.59% (inactive)
COc1ccc(N2CCN(c3oc(-c4ccco4)nc3C#N)CC2)cc1	1.24% (inactive)
CNC[C@H](CC1CCCCC1)NC[C@H](Cc1ccccc1)NCCC12CC3CC(CC(C3)C1)C2	-31.7% (inactive)
Cn1c(=O)[nH]c(=O)c2c1nc(N1CCN(c3ccccc3)CC1)n2CCSc1ncccn1	2.78% (inactive)
COc1ccc(NC(=O)C(NC(=O)Cc2cccs2)c2ccc(C)cc2)cc1 (stereo unspecified)	2.03% (inactive)
C[C@@H]1CN([C@@H](C)CO)C(=O)Cc2cc(NC(=O)Nc3ccc(F)cc3)ccc2O[C@@H]1CN(C)Cc1ccc(Cl)c(Cl)c1	94.8% (inactive)
CCOc1ccc(N(CC(=O)NC2CCCCCC2)S(=O)(=O)c2ccccc2)cc1	11.8% (inactive)
COc1ccc(NC(=O)CN(C)C(=O)C2(c3ccccc3)CCCC2)cc1	-15.3% (inactive)
C[C@@H]1CN([C@H](C)CO)C(=O)c2cc(NC(=O)Nc3ccc(C(F)(F)F)cc3)ccc2O[C@H]1CN(C)S(=O)(=O)c1ccc(Cl)cc1	5.12% (inactive)
O=C(NCc1cnn(-c2ccccc2)c1)C1CCC(=O)N(C2CC2)C1 (stereo unspecified)	-6.78% (inactive)
COc1ccccc1CNC(=O)COC(=O)CSc1ccc(C)c(C)c1	-0.519% (inactive)
COC(=O)C(Cc1ccc(O)cc1)NC(=O)C1CCN(S(=O)(=O)c2ccc(C)cc2)CC1 (stereo unspecified)	-2.45% (inactive)
CCOC(=O)C1CCCN(C(=S)Nc2cccc(Cl)c2C)C1 (stereo unspecified)	-3.98% (inactive)
Cc1c(/C(O)=C2/C(=O)C(=O)N(CCN3CCOCC3)C2c2cccnc2)cnn1-c1ccccc1 (stereo unspecified)	-0.755% (inactive)
CCOC(CNC(=O)C1CCN(S(=O)(=O)c2ccc3nc4c(c(C(=O)O)c3c2)CCCCC4)CC1)OCC	5.08% (inactive)
O=C(OCCc1cc2ccccc2c(=O)o1)c1ccco1	-0.117% (inactive)
COC(=O)C1(C)NC(c2ccccc2OC)C2C(=O)N(c3ccccc3)C(=O)C21 (stereo unspecified)	7.27% (inactive)
CC(C)C(NC(=O)c1ccccc1F)C(=O)NCc1ccccc1 (stereo unspecified)	4.3% (inactive)

Compound	activation (HDL uptake increase)
O=C(c1ccc(CS(=O)Cc2ccccc2Cl)o1)N1CCN(c2ccccn2)CC1 (stereo unspecified)	-16.3% (inactive)
CCOC(=O)N1CCN(C(=O)c2nn(C)c3c2CSc2ccccc2-3)CC1	-12.2% (inactive)
O=C1N[C@@H](c2ccccc2)COC(=O)[C@H](Cc2ccc(F)cc2)CC/C=C/C[C@H]1CC(=O)N(CCO)Cc1ccccc1	-5.36% (inactive)
Cc1csc(NC(=O)Cc2ccccc2[N+](=O)[O-])n1	1.17% (inactive)
NCCCC[C@H]1CNC(=O)C(=O)N1CCc1cccc2ccccc12	-5.05% (inactive)
Cc1csc(SCC(=O)Nc2cc(C(N)=O)cc(C(N)=O)c2)n1	-3.94% (inactive)
N#C/C(=C/c1cn(-c2ccccc2)nc1-c1cccc(OCc2ccccc2)c1)C(=O)NCCCn1ccnc1	12.2% (inactive)
Cc1ccc(N2C(=O)C3C(C(=O)c4ccccc4)=NN(c4ccccc4)C3C2=O)cc1 (stereo unspecified)	0.966% (inactive)
CC(C)C[C@@H](CN1CCCC1CN1C(=S)NC[C@@H]1Cc1ccc(O)cc1)N1C[C@H](Cc2ccc(O)cc2)N(CCc2ccccc2)C1=S (stereo partly specified)	39.2% (inactive)
O=C(CSc1nnnn1-c1ccccc1)N1CCNC1=O	-10.4% (inactive)
O=C1NC[C@H](Cc2ccccc2)N(C[C@H]2CCCN2C[C@H](Cc2ccccc2)N2C[C@H](Cc3ccccc3)N(CC3CCCCC3)C(=O)C2=O)C1=O	11.2% (inactive)
C=CCOC(=O)C1=C[C@H](c2ccc(C(F)(F)F)cc2)C[C@H](OCCCCO)O1	-10.3% (inactive)
Cc1cccc(C)c1OCc1cc(C(=O)N2CCC(c3ccccc3)CC2)no1	2.24% (inactive)
O=C(CCN1C(=O)/C(=C\C=C\c2ccccc2)SC1=S)Nc1ccc(C(=O)O)cc1	-14.1% (inactive)
COc1ccc(N2CC(NC(=O)N3CCN(C(=O)c4ccco4)CC3)CC2=O)cc1OC (stereo unspecified)	11% (inactive)
CCN(CC(=O)Nc1ccc(OC)cc1)C(=O)c1ccc(=O)n(Cc2ccccc2)n1	-12.4% (inactive)
Cc1[nH]c2ccccc2c1C(=O)CSC(=S)N(C)C1CCCCC1	-5.9% (inactive)
Cc1cc(N2C(=O)C3C4C=CC(C4)C3C2=O)no1 (stereo unspecified)	-2.45% (inactive)
O=C(NCCCc1ccccc1)c1ccc(CS(=O)Cc2ccc(Cl)cc2)o1 (stereo unspecified)	5.61% (inactive)
CN(C)CCN(C(=O)CN1C(=O)c2ccccc2C1=O)c1nc2cc3c(cc2s1)OCCO3	-2.04% (inactive)
O=C(CC1C[C@H](C(=O)N2CCOCC2)[C@@]2(CCC3CCCC3)c3[nH]c4ccccc4c3CCN2C1=O)NCc1cccc(C(F)(F)F)c1 (stereo partly specified)	25.1% (inactive)
COc1ccc(C(=O)N2CCNC(=O)C2)cc1S(=O)(=O)Nc1ccc(Br)cc1	-3.81% (inactive)
Cc1ccc(N(C)C(=O)CN(C)S(=O)(=O)c2ccc3c(c2)n(C)c(=O)c(=O)n3C)cc1	8.76% (inactive)
CCCC(=O)OCC(=O)Nc1ccc(OC(F)F)cc1	1.74% (inactive)
CC(C)=C1C2CCC1C(C(=O)NCCc1ccccc1)C2C(=O)O (stereo unspecified)	-7.43% (inactive)
Cc1nn(CC(=O)OC(C)C(=O)Nc2ccccc2[N+](=O)[O-])c(C)c1[N+](=O)[O-] (stereo unspecified)	-9.77% (inactive)

Compound	activation (HDL uptake increase)
CCCN1CCC(NC(=O)C2CCCCC2C(=O)O)CC1 (stereo unspecified)	-8.02% (inactive)
COc1ccc2c(CC(=O)NCC3CCC(C(=O)O)CC3)cc(=O)oc2c1 (stereo unspecified)	15.1% (inactive)
CC1CCCC(C)N1C(=O)COC(=O)CN1C(=O)c2ccccc2C1=O (stereo unspecified)	-4.2% (inactive)
O=C(CNC(=O)c1ccc(Cl)cc1Cl)OCC(=O)N1CCCC1	-11.8% (inactive)
O=C(CN1CCN(S(=O)(=O)c2ccc(F)cc2)CC1)Nc1ccc(F)cc1F	5.31% (inactive)
CCN1C(=O)C2C(c3cccc(F)c3)NC(CC)(C(=O)OC)C2C1=O (stereo unspecified)	-4.79% (inactive)
O=C(CCN1C(=O)c2ccccc2C1=O)C1=NN[C@@H]2C(=O)N(c3cccc(F)c3)C(=O)[C@H]12	-9.51% (inactive)
COc1ccc(C(=O)NCc2nnc(SCC(=O)NCc3ccc(F)cc3)o2)cc1	-16% (inactive)
CCOC(=O)c1c(NC(=O)C2COc3ccccc3O2)sc2c1CC(C)(C)NC2(C)C (stereo unspecified)	-5.51% (inactive)
COC(=O)Cc1c(C)c2ccc(OCc3nn[nH]n3)cc2oc1=O	4.87% (inactive)
O=C(O)COCC(=O)N1CCc2c([nH]c3ccccc23)C1C(F)(F)F (stereo unspecified)	-5.94% (inactive)
COc1ccc(CCNS(=O)(=O)c2cn(C)c(=O)n(C)c2=O)cc1OC	-3.3% (inactive)
CC1(C)NC(=O)N(CC(=O)N2CCN(S(=O)(=O)c3ccccc3C(F)(F)F)CC2)C1=O	-6.43% (inactive)
COc1ccc(-n2nc3c(c2NC(=O)c2ccc(S(=O)(=O)N4CCOCC4)cc2)CS(=O)C3)cc1 (stereo unspecified)	-10.8% (inactive)
NC(=O)C1CCN(C(=O)C2CC(=O)N(c3ccc4c(c3)OCCO4)C2)CC1 (stereo unspecified)	-4.66% (inactive)
CC(C)(C)SCCNC(=O)c1ccc(Cl)c([N+](=O)[O-])c1	-10.4% (inactive)
CC(C)N1CCc2[nH]c(=S)[nH]c(=O)c2C1	-0.502% (inactive)
COc1cccc(OCc2cc(C(=O)NC3CCOCC3)no2)c1	-16.2% (inactive)
CN1CCN(C(=O)c2ccccc2NC(=O)c2ccccc2Br)CC1	-7.48% (inactive)
COc1ccc(/C(O)=C2/C(=O)C(=O)N(CCN3CCOCC3)C2c2ccccn2)cc1 (stereo unspecified)	-1.9% (inactive)
COc1ccc2cnnc(SCC(=O)Nc3ccc(C(C)=O)cc3)c2c1OC	-18.2% (inactive)
CNC(=O)c1ccc(N(Cc2ccccc2C)S(C)(=O)=O)cc1	-9.16% (inactive)
CCN1CCN(C(CNS(=O)(=O)c2ccc(Br)cc2)c2cccnc2)CC1 (stereo unspecified)	-1.44% (inactive)
CC(=O)c1cccc(NC(=O)COC(=O)Cn2cnc3ccccc32)c1	12.6% (inactive)
OC(Cc1ccccc1)(c1ccccc1)C1CN2CCC1CC2 (stereo unspecified)	-3.56% (inactive)
O=C(CN1CCN(S(=O)(=O)c2ccc(Cl)s2)CC1)NCc1ccc(Cl)cc1	-4.32% (inactive)

same assay, conditions: ldlA[mSR-BI] CHO cells, DiI-HDL uptake fluorescence, 3 h

Compound	AC40
COCCNC(=O)c1onc(CSc2cccc(C)c2)c1C(=O)O	> 35 µM (inactive)
O=c1c(C=NCCN2CCNCC2)c(O)n(C2CCCCC2)c(=O)n1C1CCCCC1	> 35 µM (inactive)
Cc1ccc(S(=O)(=O)Nc2ccc3c(c2)C(=O)N([C@H](C)CO)C[C@H](C)[C@@H](CN(C)Cc2ccc(-c4ccccc4)cc2)O3)cc1	35 µM

From PubChem BioAssay AID602191 (Broad Institute, 2012)
